The subject of data set [1] is A549 human lung cancer cells. Put plainly: MTT assay with cis-platin alone or combined with compound 49. The conditions noted are these: A549, CisPt alone 10.0 μM, 72 h. It is filed as cell-based. The text has this: Furthermore, the depletion of GSH has been documented to potentiate the effect of anticancer drugs. Glutathione plays an important role in cisPt detoxification, so depletion of GSH is believed to potentiate the cisPt-induced DNA damage and increase the chemosensitivity of cancer cells to this anticancer drug. Due to the GSH-depleting effect of compound 49, we performed a set of experiments with cis-platin (CisPt) alone or in combination with compound 49 (Figure 9). […] Simultaneous treatments with CisPt (10 μM) and 20 μM of compound 49 caused a 59% reduction in cell growth.
The MTT assay is a colorimetric method used to quantify the metabolic activity of cells. MTT (3-(4,5-di-methylthiazol-2-yl)2,5-diphenyltetrazolium bromide) (Sigma-Aldrich Chemie, Steinheim, Germany) is reduced by oxidoreductases in the cytosol of cells to light-absorbing formazan, the presence of which can be measured spectrophotometrically and determines the half-maximal inhibitory concentration (IC50). […]
(§1) We also incubated the cells with chloroquine at concentrations of 5–20 µM, which was added 1 h before the addition of the test substance, and cisplatin at concentrations of 3–10 µM. […] After 24 h, the absorbance was measured at a wavelength of 540 nm using an automated Cytation™ 3 Cell Imaging Multi-Mode Reader (Biotek, Winooski, VT, USA). […]

A further data set concerns Jurkat. Put plainly: MTT screening assay, Jurkat. It counts as cell-based. The conditions noted are these: Homo sapiens, 72 h incubation.
From the text: (§2) The ability of newly synthesized indole phytoalexins to suppress cell proliferation was screened in vitro on eight cancer cell lines including human colorectal carcinoma (Caco-2 and HCT116), human cervical cancer (HeLa), human breast adenocarcinoma (MCF-7, MDA-MB-231), human alveolar adenocarcinoma (A549) and human leukemic T cell lymphoma (Jurkat), and two non-cancer cell lines (MCF-10A, Cos-7).
(§3) The cell lines used for this study were Caco-2 (human colorectal adenocarcinoma cell line, American Type Culture Collection, Manassas, VA, USA (ATCC)), HCT116 (human colorectal carcinoma cells European Collection of Authenticated Cell Cultures, Salisbury, UK (ECACC)), HeLa (human cervical tumor cells, ECACC), MCF-7 (human breast tumor cells, ECACC), MDA-MB-231 (human breast tumor cells, ATCC), A549 (human lung carcinoma cells, ATCC), BLM (human melanoma lung metastases, a gift from prof. K. Smetana, Institute of Anatomy, Charles University in Prague), Jurkat (human leukemia cell line, ECACC), Cos-7 (immortalized monkey kidney fibroblasts, ATCC) and MCF-10A (human mammary epithelial cells, ATCC). Caco-2, MCF-7, BLM, Cos-7 and A549 cells were cultured in Dulbecco’s Modified Eagle’s Medium (DMEM) with high glucose and sodium pyruvate (GE Healthcare, Piscataway, NJ, USA); HCT116 lines, HeLa, MDA-MB-231 and Jurkat were cultured in RPMI-1640 medium; and MCF10A cells were cultured in high glucose DMEM/F12 (Dulbecco’s Modified Eagle’s Medium F12). The media were enriched with 10% fetal bovine serum (FBS) and a 1% solution of a mixture of antibiotics and antimycotics 1× HyClone™ (GE Healthcare, Chicago, IL, USA). DMEM/F12 medium was supplemented with epidermal growth factor (EGF) (20 ng/mL final), hydrocortisone (0.5 μg/mL final) and insulin (10 μg/mL final) (Sigma-Aldrich Chemie, Steinheim, Germany). The cells were placed in an incubator at 37 °C with humidified air containing 5% CO2.
(§4) The MTT assay is a colorimetric method used to quantify the metabolic activity of cells. MTT (3-(4,5-di-methylthiazol-2-yl)2,5-diphenyltetrazolium bromide) (Sigma-Aldrich Chemie, Steinheim, Germany) is reduced by oxidoreductases in the cytosol of cells to light-absorbing formazan, the presence of which can be measured spectrophotometrically and determines the half-maximal inhibitory concentration (IC50). A549 cells were seeded in […] culture plates at a density of 5 × 10^3 per well. […]
as §1
(In general: Formazan colour is commonly taken as a measure of viable cells.)

In the next data set the test system is BLM. Put plainly: MTT screening assay, BLM. It is filed as cell-based. The conditions noted are these: Homo sapiens, 72 h incubation.
Another data set concerns MCF10A. Put plainly: MTT screening assay, MCF10A non-cancer cells. The conditions noted are these: Homo sapiens, MCF-10A; 72 h incubation, MTT, non-cancer cells. It is filed as cell-based, human.
From the text: as §2, §3
The MTT assay is a colorimetric method used to quantify the metabolic activity of cells. MTT (3-(4,5-di-methylthiazol-2-yl)2,5-diphenyltetrazolium bromide) (Sigma-Aldrich Chemie, Steinheim, Germany) is reduced by oxidoreductases in the cytosol of cells to light-absorbing formazan, the presence of which can be measured spectrophotometrically and determines the half-maximal inhibitory concentration (IC50). A549 cells were seeded in […] culture plates at a density of 5 × 10^3 per well. After 24 h of cultivation, the tested substance 49 was added in concentrations of 10, 50 and 100 µM.
We also incubated the cells with chloroquine at concentrations of 5–20 µM, which was added 1 h before the addition of the test substance, and cisplatin at concentrations of 3–10 µM. Cisplatin was added 24 h after the addition of 49. After 72 h of incubation, 10 µL of MTT (5 mg/mL) was added to each well. After 4 h, formazan crystals formed in the wells, which were dissolved in 100 uL of 10% SDS (sodium dodecyl sulfate). After 24 h, the absorbance was measured at a wavelength of 540 nm using an automated Cytation™ 3 Cell Imaging Multi-Mode Reader (Biotek, Winooski, VT, USA). These experiments were performed in three independent replicates.

In another data set the test system is Caco-2. In words: MTT screening assay, Caco-2. It is filed as cell-based. The conditions noted are these: Homo sapiens, 72 h incubation.
From the text: as §2, §3, §4, §1

The test system of another data set is HCT116. In words: MTT screening assay, HCT116. It counts as cell-based. The conditions noted are these: Homo sapiens, HCT-116, 72 h incubation.
From the text: as §2, §3, §4, §1

Another data set has as its system HeLa. In words: MTT screening assay, HeLa. It is filed as cell-based. The conditions noted are these: Homo sapiens, 72 h incubation.
From the text: as §2, §3, §4, §1

Another data set has as its system Cos-7. In words: MTT screening assay, Cos-7 non-cancer cells. It counts as cell-based, monkey. The conditions noted are these: Primates, 72 h incubation.
From the text: as §2, §3, §4, §1

Another data set relates to A549. In words: MTT screening assay, A549. It is filed as cell-based. The conditions noted are these: Homo sapiens, 72 h incubation.
From the text: as §2, §3, §4, §1

The test system of the next data set is MCF-7. Put plainly: MTT screening assay, MCF-7. It counts as cell-based. The conditions noted are these: Homo sapiens, MCF7, 72 h incubation.
From the text: as §2, §3, §4, §1

For the next data set, the system named is MDA-MB-231. In words: MTT screening assay, MDA-MB-231. It counts as cell-based. The conditions noted are these: Homo sapiens, 72 h incubation.
From the text: as §2, §3, §4, §1

As a reminder, the IC50 is the concentration needed to halve the response being measured. For orientation: melting point means the temperature, or range, at which the solid turns liquid.

Molecules are shown by their SMILES.

On to `N.N.[Cl][Pt][Cl]` [CisPt, cis-platin, reference compound], for which the “reduction of cell growth” value in [1] was 39%.
Compound `CC(C)(C)OC(=O)n1cc(CNC(=S)Nc2ccc(NC(=S)NCc3cn(C(=O)OC(C)(C)C)c4ccccc34)cc2)c2ccccc21` [Compound 48, N,N′-(1,4-phenylene)bis{N′-[1-(tert-butoxycarbonyl)indol-3-yl]methyl (thiourea)}] showed a melting point of 204 to 206 °C. The same compound came in with an IC50 in the data set with Jurkat of 38.8 ± 2.9 µM. In the data set on BLM, this compound returned an IC50 of 77.1 ± 4.3 µM. This compound also showed an IC50 with MCF10A of 67.3 ± 1.9 µM. For the same compound, in the data set with Caco-2, 51.7 ± 4.1 µM corresponded to half-maximal inhibition (IC50). The compound also registered an IC50 in the data set on HCT116 of 51.9 ± 4.7 µM. The IC50 with HeLa turned out to be 65.3 ± 5.3 µM. The compound also yielded an IC50 in the data set with Cos-7 of 78.3 ± 2.6 µM. Besides, the IC50 in the data set on A549 worked out at 73.1 ± 7.3 µM. In the data set on MCF-7, this compound showed an IC50 of 77 ± 2.1 µM. The compound further registered an IC50 with MDA-MB-231 of 46 ± 2.5 µM.
`CC(C)(C)OC(=O)n1cc(CN2C(=O)CSC2=Nc2ccc(N=C3SCC(=O)N3Cc3cn(C(=O)OC(C)(C)C)c4ccccc34)cc2)c2ccccc21` [Compound 51a, 2,2′-[1,4-phenylenebis(azanylylidene)]bis{3-[(1-(tert-butoxycarbonyl)-indol-3-yl)methyl]-1,3-thiazolidin-4-one}] gave a melting point of 196 to 198 °C. Also, the IC50 in the data set with Jurkat is greater than 100 µM. In addition, in the data set with BLM, the IC50 is greater than 100 µM. In addition, the IC50 in the data set with MCF10A is greater than 100 µM. Further, the IC50 with Caco-2 was greater than 100 µM. Besides, in the data set with HCT116, 97.7 ± 3.2 µM corresponded to half-maximal inhibition (IC50). Further, in the data set with HeLa, the 50% inhibitory concentration (IC50) was greater than 100 µM. In the data set with Cos-7, this compound displayed an IC50 greater than 100 µM. The compound further yielded an IC50 in the data set with A549 of 93.8 ± 1 µM. Further, in the data set on MCF-7, the IC50 is greater than 100 µM. The IC50 in the data set with MDA-MB-231 was greater than 100 µM.
Consider `CO[C@@H]1N(C(=O)OC(C)(C)C)c2ccccc2[C@]12CN=C(Nc1ccc(NC3=NC[C@]4(S3)c3ccccc3N(C(=O)OC(C)(C)C)[C@@H]4OC)cc1)S2` [Compound 52a, N,N′-bis[1-(tert-Butoxycarbonyl)-2-methoxy-spiro{indoline-3,5′-[4′,5′]dihydrothiazol-2′-yl}]benzene-1,4-diamine], for which the IC50 in the data set on Jurkat came to 6.1 ± 0.7 µM; with BLM it was 7.4 ± 2.5 µM; in the data set on MCF10A, 10.1 ± 6.2 µM; with Caco-2, 6.1 ± 2.1 µM; in the data set with HCT116 it was 5.8 ± 0.3 µM; with HeLa, 6.4 ± 0.7 µM. Besides, the IC50 turned out to be 7.15 ± 0.3 µM with Cos-7, 5.95 ± 0.2 µM with A549, 62.9 ± 3.9 µM in the data set with MCF-7 and 8.3 ± 3.2 µM in the data set with MDA-MB-231.

(Values after publication PMC9822133, “Design, Synthesis and Antiproliferative Evaluation of Bis-Indole Derivatives with a Phenyl Linker: Focus on Autophagy” (Molecules, 2022).)
